According to PMC6370856, “Peptidyl prolyl cis/trans isomerase activity on the cell surface correlates with extracellular matrix development” (Communications Biology, 2019):

Experiments:
fibrin hydrogel = assay: Stiffness (storage modulus) of fibrin gel by rheometer; conditions: for Storage Modulus Mean: fibrin gel
Experimental: (§1) To minimize sample evaporation at 37 °C, a tissue paper wet in HEPEs buffer (10 mM, pH 7.8) was placed inside the H-PTD chamber to increase the humidity. […] The cone and plate were treated with plasma for 5 min to increase the hydrophilicity of the metal surface.
Fibrin gel: Fibrinogen (Shanghai Laishi Xuezhipin Limited Company) was dissolved in PBS with a concentration of 22.2 mg mL^−1 overnight at room temperature with gentle shaking and aliquoted in protein low-binding tubes (45 µL per tube). […] Fifty microliters of thrombin (4 EU mL^−1 in PBS with 1.8 mM CaCl2) was added and pipetted up and down ten times. Then, it was transferred to the rheometer plate for measurement. […] For each condition, two independent experiments were performed (Fig. 1a and Supplementary Fig. 1).

[1] = tested on: collagen hydrogel (Type I, rat-tail); assay: Step-strain rheological measurement, self-healing of collagen hydrogel
Experimental: Another important feature of the dynamic ECMs is their self-healing property, which can be tested using a step-strain rheological measurement. A strong strain is applied to liquify the materials, and the recovery of storage modulus is followed (self-healing) (Fig. 1b). Collagen hydrogel can only partially recover its storage modulus after the first cycle. The rate and extent of recovery were unchanged over the following cycles.
as §1

“CypA: recombinant cyclophilin A, a PPIase, expressed in E. coli” was tested. Which “effect on storage modulus of fibrin hydrogel” value (fibrin hydrogel; 1 µM CypA) did it give?
The value was “remarkably enhanced”.

What about the “Storage Modulus Mean” value (fibrin hydrogel; 1 micromolar CypA, 3 min) of the same substance?
The value was 56.652 Pa.

What about the “Storage Modulus Mean” value (fibrin hydrogel; 1 micromolar CypA, 3.5 min) of the same substance?
The value was 58.3965 Pa.

And the “Storage Modulus Mean” value (fibrin hydrogel; 1 micromolar CypA, 4 min)?
The value was 59.006 Pa.

And the “Storage Modulus Mean” value (fibrin hydrogel; 1 micromolar CypA, 4.5 min)?
The value was 60.5775 Pa.

And the “Storage Modulus Mean” value (fibrin hydrogel; 1 micromolar CypA, 5 min)?
The value was 62.605 Pa.

And the “Storage Modulus Mean” value (fibrin hydrogel; 1 micromolar CypA, 6 min)?
Its value is 64.745 Pa.

And the “Storage Modulus Mean” value (fibrin hydrogel; 1 micromolar CypA, 6.5 min)?
Its value is 65.763 Pa.

And the “Storage Modulus Mean” value (fibrin hydrogel; 1 micromolar CypA, 7 min)?
The value was 66.7405 Pa.

And the “Storage Modulus Mean” value (fibrin hydrogel; 1 micromolar CypA, 7.5 min)?
Its value is 67.652 Pa.

And the “Storage Modulus Mean” value (fibrin hydrogel; 1 micromolar CypA, 8 min)?
Its value is 68.8195 Pa.

And the “Storage Modulus Mean” value (fibrin hydrogel; 1 micromolar CypA, 8.5 min)?
Its value is 69.705 Pa.

What about the “Storage Modulus Mean” value (fibrin hydrogel; 1 micromolar CypA, 9 min) of the same substance?
Its value is 70.143 Pa.

What about the “Storage Modulus Mean” value (fibrin hydrogel; 1 micromolar CypA, 9.5 min) of the same substance?
The value was 71.2125 Pa.

And the “Storage Modulus Mean” value (fibrin hydrogel; 1 micromolar CypA, 10 min)?
The value was 72.402 Pa.

And the “Storage Modulus Mean” value (fibrin hydrogel; 1 micromolar CypA, 11 min)?
The value was 74.113 Pa.

And the “Storage Modulus Mean” value (fibrin hydrogel; 1 micromolar CypA, 12 min)?
Its value is 75.428 Pa.

And the “Storage Modulus Mean” value (fibrin hydrogel; 1 micromolar CypA, 12.5 min)?
Its value is 75.9135 Pa.

What about the “Storage Modulus Mean” value (fibrin hydrogel; 1 micromolar CypA, 13 min) of the same substance?
The value was 76.613 Pa.

And the “Storage Modulus Mean” value (fibrin hydrogel; 1 micromolar CypA, 14 min)?
The value was 77.9915 Pa.

What about the “Storage Modulus Mean” value (fibrin hydrogel; 1 micromolar CypA, 15 min) of the same substance?
Its value is 78.877 Pa.

And the “Storage Modulus Mean” value (fibrin hydrogel; 3 micromolar CypA, 3 min)?
Its value is 56.9022 Pa.

And the “Storage Modulus Mean” value (fibrin hydrogel; 3 micromolar CypA, 3.5 min)?
Its value is 58.8285 Pa.

What about the “Storage Modulus Mean” value (fibrin hydrogel; 3 micromolar CypA, 4 min) of the same substance?
Its value is 60.4529 Pa.

And the “Storage Modulus Mean” value (fibrin hydrogel; 3 micromolar CypA, 5 min)?
The value was 63.4816 Pa.

And the “Storage Modulus Mean” value (fibrin hydrogel; 3 micromolar CypA, 6 min)?
Its value is 65.1141 Pa.

And the “Storage Modulus Mean” value (fibrin hydrogel; 3 micromolar CypA, 6.5 min)?
Its value is 66.9921 Pa.

And the “Storage Modulus Mean” value (fibrin hydrogel; 3 micromolar CypA, 7 min)?
The value was 68.0463 Pa.

What about the “Storage Modulus Mean” value (fibrin hydrogel; 3 micromolar CypA, 7.5 min) of the same substance?
Its value is 69.6441 Pa.

And the “Storage Modulus Mean” value (fibrin hydrogel; 3 micromolar CypA, 8 min)?
Its value is 70.5045 Pa.

What about the “Storage Modulus Mean” value (fibrin hydrogel; 3 micromolar CypA, 8.5 min) of the same substance?
The value was 71.5921 Pa.

And the “Storage Modulus Mean” value (fibrin hydrogel; 3 micromolar CypA, 9 min)?
Its value is 72.9987 Pa.

What about the “Storage Modulus Mean” value (fibrin hydrogel; 3 micromolar CypA, 9.5 min) of the same substance?
The value was 73.9279 Pa.

What about the “Storage Modulus Mean” value (fibrin hydrogel; 3 micromolar CypA, 10 min) of the same substance?
Its value is 75.4268 Pa.

And the “Storage Modulus Mean” value (fibrin hydrogel; 3 micromolar CypA, 11 min)?
The value was 76.965 Pa.

What about the “Storage Modulus Mean” value (fibrin hydrogel; 3 micromolar CypA, 12 min) of the same substance?
The value was 78.6581 Pa.

What about the “Storage Modulus Mean” value (fibrin hydrogel; 3 micromolar CypA, 12.5 min) of the same substance?
The value was 79.6539 Pa.

What about the “Storage Modulus Mean” value (fibrin hydrogel; 3 micromolar CypA, 13 min) of the same substance?
Its value is 80.8472 Pa.

And the “Storage Modulus Mean” value (fibrin hydrogel; 3 micromolar CypA, 14 min)?
The value was 81.859 Pa.

And the “Storage Modulus Mean” value (fibrin hydrogel; 3 micromolar CypA, 15 min)?
Its value is 84.0373 Pa.

And the “Storage Modulus Mean” value (fibrin hydrogel; 9 micromolar CypA, 3 min)?
The value was 62.185 Pa.

What about the “Storage Modulus Mean” value (fibrin hydrogel; 9 micromolar CypA, 3.5 min) of the same substance?
Its value is 63.846 Pa.

What about the “Storage Modulus Mean” value (fibrin hydrogel; 9 micromolar CypA, 4 min) of the same substance?
The value was 65.982 Pa.

And the “Storage Modulus Mean” value (fibrin hydrogel; 9 micromolar CypA, 4.5 min)?
The value was 68.114 Pa.

What about the “Storage Modulus Mean” value (fibrin hydrogel; 9 micromolar CypA, 5 min) of the same substance?
Its value is 69.837 Pa.

What about the “Storage Modulus Mean” value (fibrin hydrogel; 9 micromolar CypA, 6 min) of the same substance?
The value was 72.811 Pa.

What about the “Storage Modulus Mean” value (fibrin hydrogel; 9 micromolar CypA, 6.5 min) of the same substance?
Its value is 74.461 Pa.

What about the “Storage Modulus Mean” value (fibrin hydrogel; 9 micromolar CypA, 7 min) of the same substance?
The value was 75.619 Pa.

What about the “Storage Modulus Mean” value (fibrin hydrogel; 9 micromolar CypA, 7.5 min) of the same substance?
The value was 77.1405 Pa.

And the “Storage Modulus Mean” value (fibrin hydrogel; 9 micromolar CypA, 8 min)?
The value was 78.5045 Pa.

And the “Storage Modulus Mean” value (fibrin hydrogel; 9 micromolar CypA, 8.5 min)?
The value was 79.81 Pa.

What about the “Storage Modulus Mean” value (fibrin hydrogel; 9 micromolar CypA, 9 min) of the same substance?
Its value is 80.8145 Pa.

And the “Storage Modulus Mean” value (fibrin hydrogel; 9 micromolar CypA, 9.5 min)?
Its value is 82.609 Pa.

And the “Storage Modulus Mean” value (fibrin hydrogel; 9 micromolar CypA, 10 min)?
The value was 83.584 Pa.

What about the “Storage Modulus Mean” value (fibrin hydrogel; 9 micromolar CypA, 11 min) of the same substance?
Its value is 86.0735 Pa.

What about the “Storage Modulus Mean” value (fibrin hydrogel; 9 micromolar CypA, 12 min) of the same substance?
The value was 88.4775 Pa.

And the “Storage Modulus Mean” value (fibrin hydrogel; 9 micromolar CypA, 12.5 min)?
The value was 89.3905 Pa.

And the “Storage Modulus Mean” value (fibrin hydrogel; 9 micromolar CypA, 13 min)?
The value was 90.5025 Pa.

And the “Storage Modulus Mean” value (fibrin hydrogel; 9 micromolar CypA, 14 min)?
The value was 91.758 Pa.

And the “Storage Modulus Mean” value (fibrin hydrogel; 9 micromolar CypA, 15 min)?
Its value is 94.897 Pa.

And the “Storage Modulus Mean” value (fibrin hydrogel; 9 micromolar CypA, 15.5 min)?
Its value is 96.242 Pa.

What about the “Storage Modulus Mean” value (fibrin hydrogel; 20 micromolar CypA, 3 min) of the same substance?
Its value is 48.845 Pa.

What about the “Storage Modulus Mean” value (fibrin hydrogel; 20 micromolar CypA, 3.5 min) of the same substance?
Its value is 49.5435 Pa.

What about the “Storage Modulus Mean” value (fibrin hydrogel; 20 micromolar CypA, 4 min) of the same substance?
Its value is 50.3955 Pa.

What about the “Storage Modulus Mean” value (fibrin hydrogel; 20 micromolar CypA, 4.5 min) of the same substance?
The value was 50.963 Pa.

And the “Storage Modulus Mean” value (fibrin hydrogel; 20 micromolar CypA, 5 min)?
Its value is 51.714 Pa.

And the “Storage Modulus Mean” value (fibrin hydrogel; 20 micromolar CypA, 6 min)?
Its value is 52.522 Pa.

What about the “Storage Modulus Mean” value (fibrin hydrogel; 20 micromolar CypA, 6.5 min) of the same substance?
The value was 53.309 Pa.

And the “Storage Modulus Mean” value (fibrin hydrogel; 20 micromolar CypA, 7 min)?
Its value is 53.9025 Pa.

And the “Storage Modulus Mean” value (fibrin hydrogel; 20 micromolar CypA, 7.5 min)?
The value was 54.3695 Pa.

And the “Storage Modulus Mean” value (fibrin hydrogel; 20 micromolar CypA, 8 min)?
The value was 54.713 Pa.

What about the “Storage Modulus Mean” value (fibrin hydrogel; 20 micromolar CypA, 8.5 min) of the same substance?
Its value is 55.308 Pa.

What about the “Storage Modulus Mean” value (fibrin hydrogel; 20 micromolar CypA, 9 min) of the same substance?
Its value is 55.0885 Pa.

And the “Storage Modulus Mean” value (fibrin hydrogel; 20 micromolar CypA, 9.5 min)?
The value was 56.131 Pa.

What about the “Storage Modulus Mean” value (fibrin hydrogel; 20 micromolar CypA, 10 min) of the same substance?
Its value is 56.586 Pa.

And the “Storage Modulus Mean” value (fibrin hydrogel; 20 micromolar CypA, 11 min)?
Its value is 57.3845 Pa.

And the “Storage Modulus Mean” value (fibrin hydrogel; 20 micromolar CypA, 12 min)?
Its value is 58.3285 Pa.

And the “Storage Modulus Mean” value (fibrin hydrogel; 20 micromolar CypA, 12.5 min)?
The value was 58.642 Pa.

What about the “Storage Modulus Mean” value (fibrin hydrogel; 20 micromolar CypA, 14 min) of the same substance?
Its value is 59.019 Pa.

And the “Storage Modulus Mean” value (fibrin hydrogel; 20 micromolar CypA, 15 min)?
The value was 59.9075 Pa.

And the “Storage Modulus Mean” value (fibrin hydrogel; 20 micromolar CypA, 15.5 min)?
The value was 60.0285 Pa.

And the “stiffness and extent of recovery in the self-healing process of collagen hydrogel” value [1]?
Its value is “remarkably enhanced”.
